# Data: article PMC6070925, “Genome Mining of Non-Conventional Yeasts: Search and Analysis of MAL Clusters and Proteins” (Genes, 2018)
# Tests used:
# Experiment in all cases: glucose release, recombinant E. coli extract
# Assay type in all cases: biochemical
# Conditions in all cases: 100 mM substrate, K-phosphate pH 6.5, 0.1 mM EDTA, 30 °C
# MAL62 (Sc MAL62) [1] = biological target: T1, MAL62 (Sc MAL62) (Saccharomyces cerevisiae, UniProt P07265)
# T1 construct: gene from plasmid pY6 cloned into pURI3-Cter, expressed in E. coli BL21 (DE3), crude cell extract
# T1 sequence (P07265 whole entry): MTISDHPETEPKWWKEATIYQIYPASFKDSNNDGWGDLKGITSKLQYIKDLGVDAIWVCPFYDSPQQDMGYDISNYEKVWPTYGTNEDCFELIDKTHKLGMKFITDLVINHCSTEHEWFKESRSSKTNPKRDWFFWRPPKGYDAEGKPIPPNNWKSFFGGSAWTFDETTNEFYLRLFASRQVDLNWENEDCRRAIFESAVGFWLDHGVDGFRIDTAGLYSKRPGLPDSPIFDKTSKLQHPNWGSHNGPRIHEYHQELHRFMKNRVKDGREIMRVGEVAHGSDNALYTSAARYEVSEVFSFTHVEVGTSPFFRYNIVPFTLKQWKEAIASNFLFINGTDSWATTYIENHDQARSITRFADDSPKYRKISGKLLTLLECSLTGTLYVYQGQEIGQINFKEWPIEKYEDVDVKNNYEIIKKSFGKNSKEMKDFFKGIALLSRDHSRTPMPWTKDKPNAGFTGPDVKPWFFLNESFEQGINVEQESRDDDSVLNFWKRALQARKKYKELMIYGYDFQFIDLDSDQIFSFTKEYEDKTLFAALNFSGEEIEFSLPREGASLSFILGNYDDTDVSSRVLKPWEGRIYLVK
# MAL7 (Ss MAL7) = biological target: T2, MAL7 (Ss MAL7) (Scheffersomyces stipitis, UniProt A3LUP5)
# T2 construct: gene PCR-cloned from genomic DNA into pURI3-Cter, expressed in E. coli BL21 (DE3), crude cell extract
# T2 sequence (A3LUP5 1-572): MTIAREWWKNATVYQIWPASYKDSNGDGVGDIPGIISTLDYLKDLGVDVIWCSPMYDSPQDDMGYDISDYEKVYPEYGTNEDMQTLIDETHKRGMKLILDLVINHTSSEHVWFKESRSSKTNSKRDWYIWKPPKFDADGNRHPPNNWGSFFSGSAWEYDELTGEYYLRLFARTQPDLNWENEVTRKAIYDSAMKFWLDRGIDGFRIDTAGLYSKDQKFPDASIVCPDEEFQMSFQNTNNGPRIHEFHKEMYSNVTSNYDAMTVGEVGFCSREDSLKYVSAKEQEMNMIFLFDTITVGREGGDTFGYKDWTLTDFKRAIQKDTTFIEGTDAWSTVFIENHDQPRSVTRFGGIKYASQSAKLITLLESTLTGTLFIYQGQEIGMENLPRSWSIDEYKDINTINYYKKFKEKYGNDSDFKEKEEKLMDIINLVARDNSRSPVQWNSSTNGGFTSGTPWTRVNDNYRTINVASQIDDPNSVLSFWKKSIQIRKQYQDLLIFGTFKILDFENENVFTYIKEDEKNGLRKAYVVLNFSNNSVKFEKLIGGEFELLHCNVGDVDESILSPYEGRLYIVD
# MAL62 (Sc MAL62) [2] = biological target: T1, MAL62 (Sc MAL62); remark: listed apart in the source
# MAL9 (Ss MAL9) = biological target: T3, MAL9 (Ss MAL9) (Scheffersomyces stipitis, UniProt A3GIC0)
# T3 construct: gene PCR-cloned from genomic DNA into pURI3-Cter, expressed in E. coli BL21 (DE3), crude cell extract
# T3 sequence (A3GIC0 1-573): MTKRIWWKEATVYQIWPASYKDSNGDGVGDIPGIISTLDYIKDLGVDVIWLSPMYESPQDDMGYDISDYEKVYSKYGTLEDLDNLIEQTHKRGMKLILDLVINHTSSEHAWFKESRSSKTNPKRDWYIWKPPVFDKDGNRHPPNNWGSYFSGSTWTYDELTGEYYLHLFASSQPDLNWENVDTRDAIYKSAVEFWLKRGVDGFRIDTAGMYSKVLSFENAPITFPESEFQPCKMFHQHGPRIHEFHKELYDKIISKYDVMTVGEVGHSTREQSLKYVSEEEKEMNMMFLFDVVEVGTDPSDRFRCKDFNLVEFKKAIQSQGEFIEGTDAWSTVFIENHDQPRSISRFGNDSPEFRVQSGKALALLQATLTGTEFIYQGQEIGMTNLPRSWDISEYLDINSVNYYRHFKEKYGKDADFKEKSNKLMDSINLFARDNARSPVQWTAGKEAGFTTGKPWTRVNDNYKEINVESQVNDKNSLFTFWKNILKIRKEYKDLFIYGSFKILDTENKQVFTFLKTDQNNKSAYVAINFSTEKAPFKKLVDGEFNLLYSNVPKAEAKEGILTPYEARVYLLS
# MAL8 (Ss MAL8) = biological target: T4, MAL8 (Ss MAL8) (Scheffersomyces stipitis, UniProt A3LXA2)
# T4 construct: gene PCR-cloned from genomic DNA into pURI3-Cter, expressed in E. coli BL21 (DE3), crude cell extract
# T4 sequence (A3LXA2 1-572): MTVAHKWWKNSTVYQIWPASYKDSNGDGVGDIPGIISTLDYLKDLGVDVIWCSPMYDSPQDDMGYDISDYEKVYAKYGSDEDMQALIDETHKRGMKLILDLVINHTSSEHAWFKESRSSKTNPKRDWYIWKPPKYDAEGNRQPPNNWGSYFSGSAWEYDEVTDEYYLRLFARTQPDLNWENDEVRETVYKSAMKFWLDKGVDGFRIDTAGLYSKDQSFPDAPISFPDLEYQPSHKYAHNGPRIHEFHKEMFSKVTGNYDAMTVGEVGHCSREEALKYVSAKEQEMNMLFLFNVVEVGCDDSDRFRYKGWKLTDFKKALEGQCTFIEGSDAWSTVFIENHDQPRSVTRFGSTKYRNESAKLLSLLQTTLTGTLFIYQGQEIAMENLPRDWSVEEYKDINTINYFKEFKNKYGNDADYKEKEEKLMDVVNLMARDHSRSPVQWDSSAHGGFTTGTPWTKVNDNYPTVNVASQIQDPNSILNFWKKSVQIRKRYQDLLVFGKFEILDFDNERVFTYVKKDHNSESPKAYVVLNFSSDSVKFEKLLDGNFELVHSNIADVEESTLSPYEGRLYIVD
Structure (SMILES),specific activity (MAL62 (Sc MAL62) [1]),specific activity relative to sucrose (MAL7 (Ss MAL7)),specific activity relative to sucrose (MAL62 (Sc MAL62) [2]),specific activity relative to sucrose (MAL9 (Ss MAL9)),specific activity relative to sucrose (MAL8 (Ss MAL8))
OC[C@H]1O[C@@](CO)(O[C@H]2O[C@H](CO)[C@@H](O)[C@H](O)[C@H]2O)[C@@H](O)[C@@H]1O [sucrose],behaved as a typical maltase using only maltose-like substrates,,,,
OC[C@H]1O[C@H](O[C@H]2[C@H](O)[C@@H](O)C(O)O[C@@H]2CO)[C@H](O)[C@@H](O)[C@@H]1O (some centres unmarked) [maltose],,"all these enzymes hydrolyzed not only maltose-like substrates (maltose, sucrose)",behaved as a typical maltase using only maltose-like substrates,"all these enzymes hydrolyzed not only maltose-like substrates (maltose, sucrose)","all these enzymes hydrolyzed not only maltose-like substrates (maltose, sucrose)"
